Read-outs that look alike come from different tables or passages of the source.
Tested on: cancer cell lines
Assay: Cancer cell proliferation activity (CellTiterGlo, 72 h)
Format: cell-based
Conditions: 72 h, 72 h, read-out: IC50
Procedure, shortened: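 Readout is CellTiterGlo luminescence after 72 h compound exposure (0.1% DMSO final), started one day post-seeding, at 37 °C.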

IC50 (5637 cell line (bladder)): 4.05 µM
IC50 (AS49 cell line (lung)): > 50 µM
IC50 (CLS439 cell line (bladder)): > 50 µM
IC50 (HS729 cell line (muscle)): 12.3 µM
IC50 (JAR cell line (placenta)): 1.74 µM
IC50 (Homo sapiens, 22Rv1, 72 h, 22RV1 cell line (prostate)): > 50 µM
IC50 (Homo sapiens, 786-0, 72 h, 786O cell line (kidney)): 2.06 µM
IC50 (Homo sapiens, A204, 72 h, A204 cell line (muscle)): 3.33 µM
IC50 (Homo sapiens, A673, 72 h, A673 cell line (bone)): > 50 µM
IC50 (Homo sapiens, A2780, 72 h, A2780 cell line (ovary)): 4.62 µM
IC50 (Homo sapiens, A-375, 72 h, A375 cell line (skin)): 2.32 µM
IC50 (Homo sapiens, A-431, 72 h, A431 cell line (skin)): 2.32 µM
IC50 (Homo sapiens, ACHN, ACHN cell line (kidney)): > 50 µM
IC50 (Homo sapiens, ASPC1, 72 h, ASPC1 cell line (pancreas)): 2.3 µM
IC50 (Homo sapiens, BT-20, 72 h, BT20 cell line (breast)): 2.03 µM
IC50 (Homo sapiens, BXPC-3, 72 h, BXPC3 cell line (pancreas)): > 50 µM
IC50 (Homo sapiens, C-33-A, C33A cell line (cervical)): 4.21 µM
IC50 (Homo sapiens, CAKI-1, 72 h, CAKI1 cell line (kidney)): 0.32 µM
IC50 (Homo sapiens, COLO 205, 72 h, COLO205 cell line (colon)): > 50 µM
IC50 (Homo sapiens, COLO-678, 72 h, COLO678 cell line (colon)): > 50 µM
IC50 (Homo sapiens, Ca-Ski, CASKI cell line (cervical)): 1.69 µM
IC50 (Homo sapiens, Caco-2, 72 h, CACO2 cell line (colon)): 3.6 µM
IC50 (Homo sapiens, Calu-6, 72 h, CALU6 cell line (lung)): 4.12 µM
IC50 (Homo sapiens, DLD-1, 72 h, DLD1 cell line (colon)): > 50 µM
IC50 (Homo sapiens, DU-145, 72 h, DU145 cell line (prostate)): 1.47 µM
IC50 (Homo sapiens, EFO-21, 72 h, EFO21 cell line (ovary)): 3.32 µM
IC50 (Homo sapiens, EJ-28, 72 h, EJ28 cell line (bladder)): 3.49 µM
IC50 (Homo sapiens, Granta-519, 72 h, GRANTA-519 cell line (hematological)): 4.01 µM
IC50 (Homo sapiens, HCT-15, 72 h, HCT15 cell line (colon)): > 50 µM
IC50 (Homo sapiens, HCT-116, 72 h, HCT116 cell line (colon)): 2.89 µM
IC50 (Homo sapiens, HEK293, 72 h, HEK293 cell line (kidney)): 2.46 µM
IC50 (Homo sapiens, HL-60, 72 h, HL-60 cell line (hematological)): 3.85 µM
IC50 (Homo sapiens, HT-29, 72 h, HT29 cell line (colon)): 1.46 µM
IC50 (Homo sapiens, HT-1080, 72 h, HT1080 cell line (connective tissue)): > 50 µM
IC50 (Homo sapiens, HeLa, HELA cell line (cervical)): 4.53 µM
IC50 (Homo sapiens, HepG2, 72 h, HEPG2 cell line (liver)): 2.96 µM
IC50 (Homo sapiens, Hs-578T, HS578T cell line, breast): 6.12 µM
IC50 (Homo sapiens, IGROV-1, 72 h, IGROV1 cell line (ovary)): 2.03 µM
IC50 (Homo sapiens, IMR-90, 72 h, IMR90 cell line, lung): 4.24 µM
IC50 (Homo sapiens, J82, 72 h, J82 cell line (bladder)): 4.64 µM
IC50 (Homo sapiens, JEG-3, 72 h, JEG3 cell line (placenta)): 2.82 µM
IC50 (Homo sapiens, JIMT-1, 72 h, JIMT1 cell line (breast)): 1.23 µM
IC50 (Homo sapiens, K562, 72 h, K-562 cell line (hematological)): > 50 µM
IC50 (Homo sapiens, Kasumi 1, 72 h, KASUMI-1 cell line (hematological)): 2.16 µM
IC50 (Homo sapiens, L-363, 72 h, L-363 cell line (hematological)): 3.36 µM
IC50 (Homo sapiens, LoVo, LOVO cell line (colon)): 1.61 µM
IC50 (Homo sapiens, MCF7, 72 h, MCF7 cell line (breast)): > 50 µM
IC50 (Homo sapiens, MDA-MB-231, 72 h, MDAMB231 cell line (breast)): > 50 µM
IC50 (Homo sapiens, MDA-MB-435, 72 h, MDAMB435 cell line (skin)): > 50 µM
IC50 (Homo sapiens, MDA-MB-436, 72 h, MDAMB436 cell line (breast)): 3.22 µM
IC50 (Homo sapiens, MDA-MB-468, 72 h, MDAMB468 cell line (breast)): 4.45 µM
IC50 (Homo sapiens, MG-63, 72 h, MG63 cell line (bone)): > 50 µM
IC50 (Homo sapiens, MHH-ES-1, 72 h, MHHES1 cell line (bone)): 2.91 µM
IC50 (Homo sapiens, MIA PaCa-2, 72 h, MIAPACA2 cell line (pancreas)): > 50 µM
IC50 (Homo sapiens, MINO, MINO cell line (hematological)): 1.08 µM
IC50 (Homo sapiens, MV4-11, 72 h, MV4-11 cell line (hematological)): 0.63 µM
IC50 (Homo sapiens, NCI-H23, 72 h, NCI-H23 cell line (lung)): 3.29 µM
IC50 (Homo sapiens, NCI-H82, 72 h, NCIH82 cell line (lung)): 3.77 µM
IC50 (Homo sapiens, NCI-H292, 72 h, NCIH292 cell line (lung)): > 50 µM
IC50 (Homo sapiens, NCI-H460, 72 h, NCIH460 cell line (lung)): 3.37 µM
IC50 (Homo sapiens, OVCAR-3, 72 h, OVCAR3 cell line (ovary)): 2.05 µM
IC50 (Homo sapiens, OVCAR-4, 72 h, OVCAR4 cell line (ovary)): 3.52 µM
IC50 (Homo sapiens, PANC-1, 72 h, PANC1 cell line (pancreas)): > 50 µM
IC50 (Homo sapiens, PC-3, 72 h, PC3 cell line (prostate)): 5.77 µM
IC50 (Homo sapiens, PLC-PRF-5, 72 h, PLCPRF5 cell line (liver)): > 50 µM
IC50 (Homo sapiens, Panc1005, 72 h, PANC1005 cell line (pancreas)): 1.41 µM
IC50 (Homo sapiens, RD, RD cell line (muscle)): 6.72 µM
IC50 (Homo sapiens, Ramos, RAMOS cell line (hematological)): 2.44 µM
IC50 (Homo sapiens, SAOS-2, 72 h, SAOS2 cell line (bone)): 3.56 µM
IC50 (Homo sapiens, SF-268, 72 h, SF268 cell line (brain)): > 50 µM
IC50 (Homo sapiens, SF-295, 72 h, SF295 cell line (brain)): > 50 µM
IC50 (Homo sapiens, SK-BR-3, 72 h, SKBR3 cell line (breast)): 1.33 µM
IC50 (Homo sapiens, SK-HEP1, 72 h, SKHEP1 cell line (liver)): > 50 µM
IC50 (Homo sapiens, SK-LMS-1, 72 h, SKLMS1 cell line (uterus)): 2.29 µM
IC50 (Homo sapiens, SK-MEL-5, 72 h, SKMEL5 cell line, skin): > 50 µM
IC50 (Homo sapiens, SK-MEL-28, 72 h, SKMEL28 cell line (skin)): 9.02 µM
IC50 (Homo sapiens, SK-N-AS, SKNAS cell line (brain)): 6.83 µM
IC50 (Homo sapiens, SK-N-SH, SKNSH cell line (brain)): 2.91 µM
IC50 (Homo sapiens, SK-OV-3, 72 h, SKOV3 cell line (ovary)): 3.62 µM
IC50 (Homo sapiens, SNB-75, 72 h, SNB75 cell line (brain)): 14.9 µM
IC50 (Homo sapiens, SU-DHL10, 72 h, SU-DHL-10 cell line (hematological)): 2.62 µM
IC50 (Homo sapiens, SU-DHL-6, 72 h, SU-DHL-6 cell line (hematological)): 2.1 µM
IC50 (Homo sapiens, SW-620, 72 h, SW620 cell line (colon)): 3.12 µM
IC50 (Homo sapiens, T-24, 72 h, T24 cell line (bladder)): 6.26 µM
IC50 (Homo sapiens, TE-671, 72 h, TE671 cell line (muscle)): 12.6 µM
IC50 (Homo sapiens, THP-1, 72 h, THP-1 cell line (hematological)): 5.5 µM
IC50 (Homo sapiens, U2OS, U2OS cell line (bone)): > 50 µM
IC50 (Homo sapiens, U-87 MG, U87MG cell line (brain)): > 50 µM
IC50 (Homo sapiens, UMUC3, 72 h, UMUC3 cell line (bladder)): > 50 µM
IC50 (Homo sapiens, UO-31, 72 h, UO31 cell line (kidney)): 4.54 µM
IC50 (Homo sapiens, WSU-NHL, WSU-NHL cell line (hematological)): 4.87 µM
IC50 (MT-3, 72 h, MT3 cell line (breast)): 3.9 µM
IC50 (NCI-H358M, NCIH358M cell line (lung)): 2.63 µM
IC50 (PBMC, PBMC (hematological)): > 50 µM
IC50 (RD-ES, RDES cell line (bone)): 4.48 µM
SMILES: Nc1nc(F)nc2c1ncn2[C@H]1C[C@H](O)[C@](CO)(CF)O1 [compound 150, (2R,3S,5R)-5-(6-amino-2-fluoro-9H-purin-9-yl)-2-(fluoromethyl)-2-(hydroxymethyl)tetrahydrofuran-3-ol]

Reference: patent US20250215039A1, “NUCLEOSIDES FOR TREATING CANCER” (PRIMEFOUR THERAPEUTICS, INC., priority 2022, published 2025)
